Assay results: article PMC8110907, “Arabidopsis Carboxylesterase 20 Binds Strigolactone and Increases Branches and Tillers When Ectopically Expressed in Arabidopsis and Maize” (Frontiers in Plant Science, 2021)
Each block holds one molecule with its values, some of them ahead of it.

What was measured:
[1] = molecular target: T1, AtCXE20 (carboxylesterase 20) (Arabidopsis thaliana, UniProt Q9LVB8); experiment: esterase assay with p-nitrophenyl acetate, Michaelis-Menten kinetics; type: biochemical
T1 construct: gene CXE20; recombinant AtCXE20 with 20-amino acid N-terminal peptide fusion including a 6-histidine tag, expressed in E. coli
T1 sequence (Q9LVB8 1-327): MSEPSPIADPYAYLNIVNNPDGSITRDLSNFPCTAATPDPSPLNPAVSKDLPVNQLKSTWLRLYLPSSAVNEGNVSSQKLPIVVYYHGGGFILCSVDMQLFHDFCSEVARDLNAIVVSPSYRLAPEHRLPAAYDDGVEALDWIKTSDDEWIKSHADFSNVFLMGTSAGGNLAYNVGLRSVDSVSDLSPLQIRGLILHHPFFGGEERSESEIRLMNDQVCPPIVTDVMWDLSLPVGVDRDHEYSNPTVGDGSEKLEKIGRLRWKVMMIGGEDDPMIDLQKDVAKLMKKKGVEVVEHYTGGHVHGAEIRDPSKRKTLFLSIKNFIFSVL

[2] = molecular target: T1, AtCXE20 (carboxylesterase 20); experiment: esterase inhibition at […] (p-nitrophenyl acetate substrate); also decreased intrinsic fluorescence at […]; type: biochemical
purified protein = substrate: CC(=O)Oc1ccc([N+](=O)[O-])cc1; experiment: purified protein; type: biochemical, Arabidopsis thaliana; conditions: catalytic triad S166, H302, D272 (homology model)

Ki [1]: 5 µM
Molecule: CC1=C[C@H](O/C=C2/C(=O)O[C@@H]3C4=C(CCCC4(C)C)C[C@H]23)OC1=O [5-DS, 5-deoxystrigol]

Molecule: CC1=CC(O/C=C2/C(=O)OC3c4ccccc4CC23)OC1=O (racemic) [GR24, rac-GR24]
esterase inhibition at 20 μM (p-nitrophenyl acetate substrate); also decreased i [2]: substantial inhibition was observed with the synthetic SL racemic mixture GR24

B1: AtCXE20 (carboxylesterase 20) (Arabidopsis thaliana) (protein)
chain: T1 sequence (Q9LVB8 1-327)
notes: recombinant AtCXE20 with 20-amino acid N-terminal peptide fusion including a 6-histidine tag, expressed in E. coli
Km (purified protein): 251 ± 26 µM
